Results: patent US5496947A, “Quinolone carboxylic acid derivatives” (Dong Wha Pharmaceutical Industrial Co., Ltd., priority 1994, dated 1996)
In brackets after ≈: the same amount, converted by molar mass. Where two headings read alike, the source gives them in different places.

Key:
[1] = test system: Acinetobacter calcoaceticus; assay: MIC, 2-fold dilution method in micro-well plate, A. calcoaceticus; type: cell-based
Experimental: (§1) The in vitro antibiotic activity of the present compound is measured using 2-fold dilution method with a micro-well plate and the bacteria are inoculated in about 10^5 cfu/ml after an overnight culture in a brain-heart infusion (BHI) broth at 37° C. The novel compounds of the present invention are converted to a hydrochloride salt form and diluted with a sterilized distilled water to make 10 mg/ml aqueous solution. After the mother liquor wherein the compound is diluted to the two-fold concentration has been obtained in the form of an aqueous solution, the respective 0.1 ml of diluted liquor is transferred to a well and is inoculated with 0.1 ml of the culture fluid to make about (10^5 -10^6)/2 cfu/ml.
(§2) After cultivation at 37° C., the minimum inhibitory concentration (MIC) is measured and recorded in Table I-V.
Table I-V show the minimum inhibitory concentrations (MIC). […]

[2] = test system: Citrobacter freundii ATCC 8090; assay: MIC, 2-fold dilution method in micro-well plate, C. freundii; type: cell-based
Experimental: as §1, §2
(§3) Table I-V show the minimum inhibitory concentrations (MIC).
Citrobacter freundii ATCC 8090

[3] = test system: Enterobacter aerogenes ATCC 13048; assay: MIC, 2-fold dilution method in micro-well plate, E. aerogenes; type: cell-based; conditions: Klebsiella aerogenes
Experimental: as §1, §2, §3
Enterobacter aerogenes ATCC 13048

Enterobacter cloacae = assay: MIC, 2-fold dilution method in micro-well plate, E. cloacae; type: cell-based; conditions: read-out: Minimum Inhibitory Concentration
Experimental: as §1, §2, §3
Enterobacter cloacae ATCC 23355

[4] = test system: Escherichia coli ATCC 25922; assay: MIC, 2-fold dilution method in micro-well plate, E. coli; type: cell-based
Experimental: as §1, §2, §3
Escherichia coli ATCC 25922

[5] = test system: Haemophilus influenza ATCC 35056; assay: MIC, 2-fold dilution method in micro-well plate, H. influenzae; type: cell-based; conditions: H. influenzae ATCC35056, 37° C.; read-out: Minimum Inhibitory Concentration
Experimental: as §1, §2, §3
Haemophilus influenza ATCC 35056

[6] = test system: Klebsiella pneumoniae ATCC 13883; assay: MIC, 2-fold dilution method in micro-well plate, K. pneumoniae; type: cell-based
Experimental: as §1, §2, §3
Klebsiella pneumoniae ATCC 13883

[7] = test system: Proteus vulgaris ATCC 13315; assay: MIC, 2-fold dilution method in micro-well plate, P. vulgaris; type: cell-based
Experimental: as §1, §2, §3
Proteus vulgaris ATCC 13315

[8] = test system: Pseudomonas aeruginosa ATCC 27853; assay: MIC, 2-fold dilution method in micro-well plate, P. aeruginosa; type: cell-based
Experimental: as §1, §2, §3
Pseudomonas aeruginosa ATCC 27853

[9] = test system: Salmonella typhimurium ATCC 14028; assay: MIC, 2-fold dilution method in micro-well plate, S. typhimurium; type: cell-based; conditions: Salmonella enterica, read-out: Minimum Inhibitory Concentration
Experimental: as §1, §2, §3
Salmonella typhimurium ATCC 14028

[10] = test system: Shigella flexneri ATCC 12022; assay: MIC, 2-fold dilution method in micro-well plate, S. flexneri; type: cell-based; conditions: S. flexneri ATCC12022, 37° C., read-out: Minimum Inhibitory Concentration
Experimental: as §1, §2, §3
Shigella flexneri ATCC 12022

[11] = test system: Shigella sonnei ATCC 25931; assay: MIC, 2-fold dilution method in micro-well plate, S. sonnei; type: cell-based; conditions: S. sonnei ATCC25931, 37° C., read-out: Minimum Inhibitory Concentration
Experimental: as §1, §2, §3
Shigella sonnei ATCC 25931

[12] = test system: Serratia marcescens ATCC 8100; assay: MIC, 2-fold dilution method in micro-well plate, S. marcescens; type: cell-based
Experimental: as §1, §2, §3
Serratia marcescens ATCC 8100

[13] = test system: Streptococcus faecalis ATCC 19433; assay: MIC, 2-fold dilution method in micro-well plate, S. faecalis ATCC 19433; type: cell-based; conditions: Enterococcus faecalis; S. faecalis ATCC19433, 37° C.; read-out: Minimum Inhibitory Concentration
Experimental: as §1, §2, §3
Streptococcus faecalis ATCC 19433

[14] = test system: Streptococcus faecalis ATCC 29212; assay: MIC, 2-fold dilution method in micro-well plate, S. faecalis ATCC 29212; type: cell-based; conditions: Enterococcus faecalis; S. faecalis ATCC29212, 37° C.; read-out: Minimum Inhibitory Concentration
Experimental: as §1, §2, §3
Streptococcus faecalis ATCC 29212

[15] = test system: Streptococcus pneumoniae ATCC 6303; assay: MIC, 2-fold dilution method in micro-well plate, S. pneumoniae; type: cell-based; conditions: S. pneuinoniae ATCC6303, 37° C., read-out: Minimum Inhibitory Concentration
Experimental: as §1, §2, §3
Streptococcus pneumoniae ATCC 6303

[16] = test system: Streptococcus pyrogens ATCC 19615; assay: MIC, 2-fold dilution method in micro-well plate, S. pyrogens; type: cell-based; conditions: S. pyrogenes ATCC19615, 37° C., read-out: Minimum Inhibitory Concentration
Experimental: as §1, §2, §3
Streptococcus pyrogens ATCC 19615

[17] = Pharmacokinetic properties in ICR mouse, oral and subcutaneous, Bio-Assay (Agar well method); type: in vivo; conditions: 40 mg/kg, average of four tests; for dose excreted: urine, read-out: Urine Recovery
Experimental: The pharmacokinetic properties are tested by orally administrating and subcutaneously injecting a test compound and a substance for control to a ICR Mouse with 22 g±10% weight, drawing blood after 10, 20, 30, 45, 60, 90, 120, 150, 180 and […] and analyzed by Bio-Assay (Agar well method).

[18] = ATCC8090, read-out: Minimum Inhibitory Concentration
[19] = ATCC13048, read-out: Minimum Inhibitory Concentration
[20] = ATCC25922, read-out: Minimum Inhibitory Concentration
[21] = ATCC13883, read-out: Minimum Inhibitory Concentration
[22] = ATCC13315, read-out: Minimum Inhibitory Concentration
[23] = P. aerugirnosa ATCC27853, 37° C., read-out: Minimum Inhibitory Concentration
[24] = ATCC8100, read-out: Minimum Inhibitory Concentration
[25] = A. calcoaceticus ATCC8090 (as in tables), 37° C., read-out: Minimum Inhibitory Concentration
[26] = E. cloacae ATCC23355 (as in tables), 37° C.
[27] = E. coli ATCC25922, 37° C., read-out: Minimum Inhibitory Concentration
[28] = K. pneumoniae ATCC13883, 37° C., read-out: Minimum Inhibitory Concentration
[29] = P. vulgaris ATCC13315, 37° C., read-out: Minimum Inhibitory Concentration
[30] = S. typhisurium ATCC14028, 37° C.
[31] = S. marcescens ATCC8100, 37° C., read-out: Minimum Inhibitory Concentration
[32] = E. aerogenes ATCC13048, 37° C., read-out: Minimum Inhibitory Concentration

SMILES | MIC [1, 18] [µg/mL] | MIC [2, 18] [µg/mL] | MIC [3, 19] [µg/mL] | MIC (Enterobacter cloacae) [µg/mL] | MIC [5] [µg/mL] | MIC [7, 22] [µg/mL] | MIC [8, 23] [µg/mL] | MIC [9] [µg/mL] | MIC [10] [µg/mL] | MIC [11] [µg/mL] | MIC [12, 24] [µg/mL] | MIC [13] [µg/mL] | MIC [14] [µg/mL] | MIC [15] [µg/mL] | MIC [16] [µg/mL] | MIC [4, 27] [µg/mL] | MIC [6, 28] [µg/mL] | MIC [7, 29] [µg/mL] | MIC [3, 32] [µg/mL] | also measured
CN1CCN(c2c(F)cc3c(=O)c(C(=O)O)cn(-c4ccc(F)cn4)c3c2F)CC1.Cl [Example 24, 1-(5-fluoro-2-pyridyl)-6,8-difluoro-7-(4-methyl-1-piperazinyl)-1,4-dihydro-4-oxoquinoline-3-carboxylic acid hydrochloride] | 0.625 | 0.625 | 0.625 | 0.625 | 0.313 | 0.625 | 0.625 | 0.313 | 0.625 | 0.156 | 0.625 | 5 | 2.5 | 5 | 10 |  |  |  |  | MIC [4, 20]: 0.625 µg/mL; MIC [6, 21]: 0.625 µg/mL
N[C@H]1CCN(c2cc3c(cc2F)c(=O)c(C(=O)O)cn3-c2ccncc2F)C1 [Example 6, 1-(3-fluoro-4-pyridyl)-6-fluoro-7-[(3S)-3-amino-1-pyrrolidinyl]-1,4-dihydro-4-oxoquinoline-3-carboxylic acid] |  | 0.313 (≈ 0.81 µM) | 0.313 (≈ 0.81 µM) |  | 0.313 (≈ 0.81 µM) |  | 0.156 (≈ 0.404 µM) |  | 0.313 (≈ 0.81 µM) | 0.02 (≈ 0.0518 µM) |  | 1.25 (≈ 3.24 µM) | 2.5 (≈ 6.47 µM) | 2.5 (≈ 6.47 µM) | 2.5 (≈ 6.47 µM) | 0.078 (≈ 0.202 µM) | 0.156 (≈ 0.404 µM) | 0.078 (≈ 0.202 µM) |  | MIC [1, 25]: 0.156 µg/mL (≈ 0.404 µM); MIC (Enterobacter cloacae; [26]): 0.156 µg/mL (≈ 0.404 µM); MIC [9, 30]: 0.156 µg/mL (≈ 0.404 µM); MIC [12, 31]: 0.078 µg/mL (≈ 0.202 µM)
Cl.O=C(O)c1cn(-c2ccncc2F)c2nc(N3CCNCC3)c(F)cc2c1=O [Example 7, 1-(3-fluoro-4-pyridyl)-6-fluoro-7-(1-piperazinyl)-1,4-dihydro-4-oxo-1,8-naphthyridine-3-carboxylic acid hydrochloride] |  |  |  |  | 0.313 | 0.313 |  | 0.313 | 0.156 | 0.313 |  | 2.5 | 5 | 2.5 | 5 | 0.625 | 0.625 |  | 0.625 | MIC [1, 25]: 2.5 µg/mL; MIC ([2]; C. freundii ATCC8090, 37° C., read-out: Minimum Inhibitory Concentration): 1.25 µg/mL; MIC (Enterobacter cloacae; [26]): 0.625 µg/mL; MIC ([8]; ATCC27853, read-out: Minimum Inhibitory Concentration): 0.625 µg/mL; MIC [12, 31]: 1.25 µg/mL
CC1CN(c2c(F)cc3c(=O)c(C(=O)O)cn(-c4ccc(F)cn4)c3c2F)CC(C)N1.Cl (stereo not shown) [Example 26, 1-(5-fluoro-2-pyridyl)-6,8-difluoro-7-(3,5-dimethyl-1-piperazinyl)-1,4-dihydro-4-oxoquinoline-3-carboxylic acid hydrochloride] | 1.25 | 1.25 |  | 1.25 | 1.25 |  | 0.625 |  | 0.313 | 0.313 | 1.25 | 5 | 5 | 5 | 10 | 0.625 | 0.625 | 0.255 | 0.625 | MIC [9, 30]: 0.625 µg/mL
CC1CN(c2cc3c(cc2F)c(=O)c(C(=O)O)cn3-c2ccc(F)cn2)CC(C)N1.Cl (stereo not shown) [Example 20, 1-(5-fluoro-2-pyridyl)-6-fluoro-7-(3,5-dimethyl-1-piperazinyl)-1,4-dihydro-4-oxoquinoline-3-carboxylic acid hydrochloride] | 1.25 | 0.625 | 1.25 | 0.625 | 1.25 | 0.625 | 1.25 | 1.25 | 0.625 | 0.313 | 0.625 | 5 | 2.5 | 5 | 10 |  |  |  |  | MIC [4, 20]: 0.625 µg/mL; MIC [6, 21]: 0.625 µg/mL
Cl.NC1CCN(c2cc3c(cc2F)c(=O)c(C(=O)O)cn3-c2ccncc2F)C1 (stereo not shown) [Example 5, 1-(3-fluoro-4-pyridyl)-6-fluoro-7-(3-amino-1-pyrrolidinyl)-1,4-dihydro-4-oxoquinoline-3-carboxylic acid hydrochloride] | 0.313 | 0.313 |  | 0.313 | 0.313 |  | 0.313 | 0.313 | 0.625 | 0.078 | 0.313 | 2.5 | 2.5 | 2.5 | 5 | 0.156 | 0.156 | 0.078 | 0.156 | 
CC1COc2c(N3CCN(C)CC3)c(F)cc3c(=O)c(C(=O)O)cn1c23 (stereo not shown) [Ofloxacin, reference compound] |  |  |  |  |  |  |  |  |  |  |  |  |  |  |  |  |  |  |  | AUC ([17]; blood, po, P.O): 12800 ng·h/mL; Cmax ([17]; blood, po, P.O): 9410 ng/mL; Tmax ([17]; blood, po, P.O): 45 min; bioavailability ([17]; blood, po, P.O): 89.8%; AUC ([17]; blood, sc, S.C): 14200 ng·h/mL; Cmax ([17]; blood, sc, S.C): 12900 ng/mL; Tmax ([17]; blood, sc, S.C): 25.2 min; half-life ([17]; blood, sc, S.C): 25.2 min; dose excreted ([17]; po, P.O): 32.2%; dose excreted ([17]; sc, S.C): 39.1%
